Active and inactive are the calls of the source. The rule behind the calls is not given here. Starred links: 1 amine or outer side, 2 acyl side, 3 side chain; linkers in the order of their positions; H or OH if unused. Positions of bridges follow the written chain, without caps; N, C: chain ends. Residues, ends and D or L forms follow the SMILES beside them. X1 = CC(C)[C@@H](CNC(N)=O)NC(=O)NC[C@H](C)NC(=O)NC[C@H](CSCCCCCC[*:1])N[*:2]
How the values were obtained:
[1] = PROTAC activity at human DM2/p53 extracted from Escherichia coli interaction by measuring inhibition of interaction by time-resolved fluorescence energy transfer (TRFRET) detection method
[2] = target: Tumour suppressor protein p53/Mdm4 (Homo sapiens, UniProt O15151); test: PROTAC activity at human DMX/p53 extracted from Escherichia coli interaction by measuring inhibition of interaction by time-resolved fluorescence energy transfer (TRFRET) detection method; type: protein assay
Tumour suppressor protein p53/Mdm4, sequence (P04637 whole entry): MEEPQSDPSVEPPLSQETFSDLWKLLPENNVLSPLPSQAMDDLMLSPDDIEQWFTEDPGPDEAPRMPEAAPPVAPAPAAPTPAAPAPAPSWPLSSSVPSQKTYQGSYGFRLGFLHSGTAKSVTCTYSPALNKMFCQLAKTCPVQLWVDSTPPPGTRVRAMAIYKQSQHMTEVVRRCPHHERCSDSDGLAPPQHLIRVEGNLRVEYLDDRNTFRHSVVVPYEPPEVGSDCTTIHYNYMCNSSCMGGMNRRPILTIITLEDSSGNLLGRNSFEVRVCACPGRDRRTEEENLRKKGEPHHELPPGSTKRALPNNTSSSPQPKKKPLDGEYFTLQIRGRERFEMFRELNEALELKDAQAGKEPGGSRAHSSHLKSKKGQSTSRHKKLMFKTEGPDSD
Tumour suppressor protein p53/Mdm4, sequence (O15151 whole entry): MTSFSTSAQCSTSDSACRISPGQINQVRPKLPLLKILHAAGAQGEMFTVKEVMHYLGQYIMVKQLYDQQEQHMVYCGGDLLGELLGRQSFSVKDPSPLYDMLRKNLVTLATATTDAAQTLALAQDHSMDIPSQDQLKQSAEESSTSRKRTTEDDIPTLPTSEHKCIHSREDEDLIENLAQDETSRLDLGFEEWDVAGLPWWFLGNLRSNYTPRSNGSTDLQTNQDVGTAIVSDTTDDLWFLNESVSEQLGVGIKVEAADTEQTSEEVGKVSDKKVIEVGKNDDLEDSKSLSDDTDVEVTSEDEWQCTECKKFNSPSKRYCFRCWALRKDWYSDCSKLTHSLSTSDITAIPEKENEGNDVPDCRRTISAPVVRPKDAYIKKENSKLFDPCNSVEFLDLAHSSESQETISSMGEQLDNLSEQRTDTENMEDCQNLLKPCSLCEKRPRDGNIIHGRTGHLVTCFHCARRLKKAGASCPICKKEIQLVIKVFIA

HCT-116 [3] = test: Induction of p53 level in human HCT-116 cells expressing wild type p53 measured after 6 hrs by Western blotting analysis; type: functional, cell-based; details: dose 0.1-40 µM
HCT-116 [4] = test: Induction of P21 RNA level in human HCT-116 cells expressing wild type p53 measured after 6 hrs by RT-qPCR analysis; type: functional, cell-based; details: dose 0.1-10 µM
HCT-116 [5] = test: Induction of hDM2 RNA level in human HCT-116 cells expressing wild type p53 measured after 6 hrs by RT-qPCR analysis; type: functional, cell-based; details: dose 0.1-10 µM
HCT-116 [6] = test: Cytotoxicity against human HCT-116 cells assessed as cell viability at 0.1 to 40 uM measured after 2 hrs incubation by LDH release assay; type: functional, cell-based; details: dose 0.1-40 µM
HCT-116 [7] = test: Cytotoxicity against human HCT116 cells expressing wild type p53 and overexpressing human DM2 assessed as cell viability measured after 72 hrs incubation by MTS cell viability assay; type: functional, cell-based; details: HCT-116, 72 h
MCF7 = test: Cytotoxicity against human MCF7 cells expressing wild type p53 and overexpressing human DMX assessed as cell viability measured after 72 hrs incubation by MTS cell viability assay; type: functional, cell-based; details: MCF7, 72 h
SW480 [8] = test: Cytotoxicity against human SW480 cells expressing p53 mutant and overexpressing human DM2 assessed as cell viability measured after 72 hrs incubation by MTS cell viability assay; type: functional, cell-based
SW480 [9] = test: Cytotoxicity against human SW480 cells expressing lower level of human DM2 assessed as cell viability measured after 72 hrs incubation by MTS cell viability assay; type: functional, cell-based
HCT-116 [10] = test: Effect on increase in wild type p53 level in human HCT-116 cells at 10 uM measured after 6 hrs by Western blot analysis; type: functional, cell-based
HCT-116 [11] = test: Effect on increase in p21 RNA level in human HCT-116 cells at 10 uM measured after 6 hrs by RT-qPCR analysis; type: functional, cell-based
HCT-116 [12] = test: Effect on increase in […] RNA level in human HCT-116 cells at 10 uM measured after 6 hrs by RT-qPCR analysis; type: functional, cell-based

Structure (SMILES) | IC50 [1] [µM] | IC50 [2] [µM] | Activity (HCT-116 [3]) | Activity (HCT-116 [4]) | Activity (HCT-116 [5]) | Activity (HCT-116 [6]) | IC50 (HCT-116 [7]) [µM] | IC50 (MCF7) [µM] | Activity (SW480 [8]) | Activity (SW480 [9]) | Activity (HCT-116 [10]) | Activity (HCT-116 [11]) | Activity (HCT-116 [12])
CC(=O)N[C@@H](CCCCN)C(=O)N[C@H](C(=O)N[C@@H](Cc1ccccc1)C(=O)N[C@H]1CSCCCCCCSC[C@@H](CNC(=O)N[C@@H](C)CNC(=O)N[C@H](CNC(N)=O)C(C)C)NC(=O)[C@H](Cc2c[nH]c3ccccc23)NC(=O)[C@H](Cc2ccc(O)cc2)NC(=O)[C@H](CCC(=O)O)NC1=O)[C@@H](C)O (Ac-KTFCEYW; linker 4-C via X1) | 0.00924 | 73.3 | Dose-dependent-effect; Similar To Nutlin-3A | Dose-dependent-effect | Dose-dependent-effect | Not active; Indicating Absence Of Direct Effect On Cell Membranes |  |  |  |  |  |  | 
CC(C)[C@@H](CNC(N)=O)NC(=O)NC[C@H](C)NC(=O)NC[C@@H]1CSCCCCCCSC[C@H](NC(=O)[C@H](Cc2ccccc2)NC(=O)[C@H](CO)NC(=O)[C@H](CCCCN)NC(=O)[C@H](CCCNC(=N)N)NC(=O)[C@H](CCCNC(=N)N)NC(=O)[C@@H](N)CCCNC(=N)N)C(=O)N[C@@H](CCC(=O)O)C(=O)N[C@@H](Cc2ccc(O)cc2)C(=O)N[C@@H](Cc2c[nH]c3ccccc23)C(=O)N1 (H-RRRKSFCEYW; linker 7-C via X1) | 0.0046 | 22 |  |  |  |  | 3.86 | 3.98 | Active | Active | inactive | inactive | inactive

— ChEMBL document CHEMBL6087461, “Cell-Permeable Peptide Inhibitors of the p53-hDM2 Interaction via Foldamer Helix Mimicry and Bis-Thioether Stapling” (J Med Chem, 2025)
